Assays:
MiaPaCa-2 = assay: Cell viability assay (resazurin), MiaPaCa-2; assay type: cell-based; settings: Homo sapiens, MIA PaCa-2; MiaPaCa-2 pancreatic cancer cells
Description: (§1) Protocol for Cell Viability Assay in Different Cell Lines for CHK-1 Inhibitors:
(§2) Cells were allowed to grow at 37° C. for 24 hr (adherent cells) in 5% CO2 (culture conditions) in a Nuaire incubator (humidified). Following 24 hr (adherent cells), serially diluted compounds (100 μl) were added to the culture plate (immediately after plating in case of suspension cells) and the cultures were further incubated in culture conditions for 72-144 hr depending on the cell type. Experiment was terminated at the completion of respective incubation with drug by replacing the medium with 100 μl of 1 mM of resazurin (R7017; Sigma) prepared in culture medium and the plates were further incubated in culture conditions for 4 hr. In case of 144 hr incubation with the drug, the drug was replenished once with fresh medium after 72 hr. Fluorescence was then measured using a multimodal plate reader (Biotek Synergy Neo) at an excitation wavelength of 535 nm and emission wavelength of 590 nm to obtain relative fluorescence units. Data analysis was done by subtracting the background fluorescence (only medium blank) value from each reading and then normalizing with the vehicle control (DMSO treated cells) to obtain percent survival/proliferation. Percent survival at different doses was used to calculate IC50 by fitting the curve to the “four-parameter variable slope logistic model” using Prism Graph Pad.

THP1 = assay: Cell viability assay (resazurin), THP1; assay type: cell-based; settings: Homo sapiens, THP-1; THP1 peripheral blood cells
Description: as §1, §2

HT-29 = assay: Cell viability assay (resazurin), HT-29; assay type: cell-based; settings: Homo sapiens; HT-29 colon cancer cells
Description: as §1, §2

CHK-1 kinase = CHK-1 kinase (Homo sapiens (Human), UniProt O14757); assay: CHK-1 Kinase Assay (Z-LYTE based TR-FRET); assay type: biochemical; settings: for inhibition at 0.1 µM: 0.1 μM compound, read-out: % Inhibition of CHK-1 enzyme activity @ 0.1 μM; for inhibition at 1 µM: 1 μM compound, read-out: % Inhibition of CHK-1 enzyme activity @ 1 μM; for inhibition at 5 µM: 5 μM compound, read-out: % Inhibition of CHK-1 enzyme activity @ 5 μM
Description: IC50 values of compounds for inhibition of CHK-1 kinase or percent inhibition at defined concentrations were determined by Z-LYTE™ based TR-FRET assay. Kinase reactions were performed in a 10 μL volume in low-volume 384-well plates. The concentration of substrate (Ser Thr 19) was maintained at 2 μM in the assay, and the kinase reaction buffer consisted of 50 mM HEPES pH 7.5, 0.01% BRIJ-35, 10 mM MgCl2, 1 mM EGTA, 2 mM DTT. Serially diluted compounds (3-fold) in DMSO (0.5% in final reaction) were incubated with cocktail of CHK-1 kinase (5 ng/ml; Cat #P3040, ThermoFisher), substrate Ser Thr 19, (2 μM; Cat #PV4529, ThermoFisher), ATP (53 μM; Cat #PV3227, ThermoFisher) and buffer. Kinase reactions were allowed to proceed for 1 hour at room temperature after which 5 μL of a 1:256 dilution of Development Reagent A was added. The plate was allowed to incubate at room temperature for 60 minutes before being read on a BMG Pherastar plate reader using the Z-LYTE™ filter block for Z-LYTE™ TR-FRET. The resulting TR-FRET emission ratio was used to calculate percent inhibition by normalizing with the control using the following formula: — [% Inhibition=1−{(% Phosphorylationsample/% Phosphorylationcontrol (0% Inhibition)}·100] For calculation of IC50, the percent inhibition obtained was plotted against the concentration of inhibitor, and the data was fit to a sigmoidal dose-response curve with a variable slope. The IC50 was calculated from the curve.

AsPC-1 = assay: Cell viability assay (resazurin), AsPC-1; assay type: cell-based; settings: Homo sapiens, ASPC1; AsPC-1 pancreatic cancer cells
Description: as §1, §2

CHK-2 kinase = CHK-2 kinase (Homo sapiens (Human), UniProt O96017); assay: CHK-2 Kinase Assay (Z-LYTE based TR-FRET); assay type: biochemical; settings: for inhibition at 0.1 µM: 0.1 μM compound, read-out: % Inhibition of CHK-2 enzyme activity @ 0.1 μM; for inhibition at 1 µM: 1 μM compound, read-out: % Inhibition of CHK-2 enzyme activity @ 1 μM
Description: IC50 values of compounds for inhibition of CHK-2 kinase or percent inhibition at defined concentrations were determined by Z-LYTE™ based TR-FRET assay. Kinase reactions were performed in a 10 μL volume in low-volume 384-well plates. The concentration of substrate (Ser Thr 07) was maintained at 1 μM in the assay, and the kinase reaction buffer consisted of 50 mM HEPES pH 7.5, 0.01% BRIJ-35, 10 mM MgCl2, 1 mM EGTA. Serially diluted compounds (3-fold) in DMSO (0.5% in final reaction) were incubated with cocktail of CHK2 kinase (5 ng/ml; Cat #PV3367, ThermoFisher), substrate Ser Thr 07, (1 μM; Cat #PV3208, ThermoFisher), ATP (84 μM; Cat #PV3227, ThermoFisher) and buffer. Kinase reactions were allowed to proceed for 1 hour at room temperature after which 5 μL of a 1:45000 dilution of Development Reagent A was added. The plate was allowed to incubate at room temperature for 60 minutes before being read on a BMG Pherastar plate reader using the Z-LYTE™ filter block for Z-LYTE™ TR-FRET.
The resulting TR-FRET emission ratio was used to calculate percent inhibition by normalizing with the control using the following formula: — [% Inhibition=1−{(% Phosphorylationsample/% Phosphorylationcontrol (0% inhibition)}·100]
For calculation of IC50, the percent inhibition obtained was plotted against the concentration of inhibitor, and the data was fit to a sigmoidal dose-response curve with a variable slope. The IC50 was calculated from the curve.

A549 = assay: Cell viability assay (resazurin), A549; assay type: cell-based; settings: Homo sapiens; A549 lung epithelial carcinoma cells
Description: as §1, §2

HCT116 = assay: Cell viability assay (resazurin), HCT116; assay type: cell-based; settings: Homo sapiens, HCT-116; HCT116 colorectal carcinoma cells
Description: as §1, §2

MDA_MB-231 = assay: Cell viability assay (resazurin), MDA_MB-231; assay type: cell-based; settings: Homo sapiens, MDA-MB-231; MDA_MB-231 TNBC cells
Description: as §1, §2

Panc-10.05 = assay: Cell viability assay (resazurin), Panc-10.05; assay type: cell-based; settings: Homo sapiens, Panc1005; Panc-10.05 cells
Description: as §1, §2

MV-4-11 = assay: Cell viability assay (resazurin), MV-4-11; assay type: cell-based; settings: Homo sapiens, MV4-11; MV-4-11 peripheral blood cells
Description: as §1, §2

Sequence of CHK-1 kinase (O14757 whole entry): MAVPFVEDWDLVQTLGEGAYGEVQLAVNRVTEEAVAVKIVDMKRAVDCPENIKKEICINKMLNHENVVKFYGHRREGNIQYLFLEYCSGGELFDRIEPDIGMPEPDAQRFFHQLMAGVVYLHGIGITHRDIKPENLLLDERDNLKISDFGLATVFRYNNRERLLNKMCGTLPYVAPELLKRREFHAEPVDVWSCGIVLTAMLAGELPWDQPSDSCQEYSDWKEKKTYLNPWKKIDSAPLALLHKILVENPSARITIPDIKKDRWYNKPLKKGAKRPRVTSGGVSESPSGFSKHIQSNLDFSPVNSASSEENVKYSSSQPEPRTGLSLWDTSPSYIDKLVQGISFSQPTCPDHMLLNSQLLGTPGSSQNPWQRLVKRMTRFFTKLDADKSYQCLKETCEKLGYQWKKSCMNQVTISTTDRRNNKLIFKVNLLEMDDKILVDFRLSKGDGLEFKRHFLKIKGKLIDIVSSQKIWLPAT
Sequence of CHK-2 kinase (O96017 whole entry): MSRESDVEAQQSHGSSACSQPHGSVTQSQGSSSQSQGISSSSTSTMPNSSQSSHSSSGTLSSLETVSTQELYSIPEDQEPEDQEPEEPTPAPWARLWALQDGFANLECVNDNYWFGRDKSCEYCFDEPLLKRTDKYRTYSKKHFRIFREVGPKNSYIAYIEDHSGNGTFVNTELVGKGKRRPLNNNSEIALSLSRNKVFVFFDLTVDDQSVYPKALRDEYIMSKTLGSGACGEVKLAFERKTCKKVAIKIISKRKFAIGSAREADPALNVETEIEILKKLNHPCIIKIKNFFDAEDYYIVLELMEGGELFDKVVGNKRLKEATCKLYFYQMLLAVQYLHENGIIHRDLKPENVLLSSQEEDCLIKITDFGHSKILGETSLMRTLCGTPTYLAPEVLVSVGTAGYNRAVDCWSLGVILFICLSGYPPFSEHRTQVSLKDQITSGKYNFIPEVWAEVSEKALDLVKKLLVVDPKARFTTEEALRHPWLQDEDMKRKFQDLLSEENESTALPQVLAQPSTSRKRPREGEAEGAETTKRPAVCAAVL

SMILES: N#Cc1cnc(Nc2cc(NCC3CNCCO3)c(C(F)(F)F)nn2)cn1 (stereo not drawn) [1.7, 2-((6-(5-cyanopyrazin-2-ylamino)-3-(trifluoromethyl)pyridazin-4-ylamino)methyl)morpholin-4-ium 2,2,2-trifluoroacetate]
- IC50 (MiaPaCa-2): > 30 µM
- IC50 (THP1): > 30 µM
- IC50 (HT-29): > 30 µM

SMILES: CN1CCC(Nc2cc(Nc3cnc(C#N)cn3)nnc2C(N)=O)CC1 [1.20, 6-(5-cyanopyrazin-2-ylamino)-4-(1-methylpiperidin-4-ylamino)pyridazine-3-carboxamide]
- inhibition at 0.1 µM (CHK-1 kinase): 61%
- inhibition at 1 µM (CHK-1 kinase): 93%
- inhibition at 5 µM (CHK-1 kinase): 100%
- IC50 (AsPC-1): 11.9 µM
- IC50 (MiaPaCa-2): 23.5 µM
- IC50 (THP1): 21.8 µM

SMILES: N#Cc1cnc(Nc2cc(NCC3CCNCC3)c(C(N)=O)nn2)cn1 [1.3, 6-((5-cyanopyrazin-2-yl)amino)-4-((piperidin-4-ylmethyl)amino)pyridazine-3-carboxamide]
- IC50 (CHK-1 kinase): 0.092 µM
- inhibition at 1 µM (CHK-1 kinase): 93%
- inhibition at 5 µM (CHK-1 kinase): 98%
- inhibition at 0.1 µM (CHK-2 kinase): 12.1%
- inhibition at 1 µM (CHK-2 kinase): 36.7%
- IC50 (A549): > 30 µM
- IC50 (AsPC-1): > 30 µM
- IC50 (HCT116): > 30 µM
- IC50 (MDA_MB-231): > 30 µM
- IC50 (MiaPaCa-2): > 30 µM
- IC50 (Panc-10.05): > 30 µM
- IC50 (THP1): > 30 µM
- IC50 (HT-29): > 30 µM

SMILES: CNC(=O)c1nnc(Nc2cnc(C#N)cn2)cc1NC[C@@H]1CNCCO1 (stereo in doubt) [1.34, 6-(5-cyanopyrazin-2-ylamino)-N-methyl-4-(morpholin-2-ylmethylamino)pyridazine-3-carboxamide]
- inhibition at 0.1 µM (CHK-1 kinase): 77%
- inhibition at 1 µM (CHK-1 kinase): 96%
- inhibition at 5 µM (CHK-1 kinase): 99%
- IC50 (A549): > 30 µM
- IC50 (AsPC-1): 13.2 µM
- IC50 (HCT116): 27.9 µM
- IC50 (MDA_MB-231): 12.4 µM
- IC50 (MiaPaCa-2): 10.8 µM
- IC50 (THP1): 9.79 µM
- IC50 (HT-29): 16.9 µM
- IC50 (MV-4-11): 7 µM

SMILES: N#Cc1cnc(Nc2cc(NCC3CNCCO3)c(C(N)=O)nn2)cn1 (stereo not drawn) [1.2, 6-((5-cyanopyrazin-2-yl)amino)-4-((morpholin-2-ylmethyl)amino)pyridazine-3-carboxamide]
- IC50 (CHK-1 kinase): 0.07 µM
- inhibition at 1 µM (CHK-1 kinase): 96%
- inhibition at 5 µM (CHK-1 kinase): 100%
- inhibition at 0.1 µM (CHK-2 kinase): 8.28%
- inhibition at 1 µM (CHK-2 kinase): 30%
- IC50 (A549): > 30 µM
- IC50 (AsPC-1): > 30 µM
- IC50 (HCT116): > 30 µM
- IC50 (MDA_MB-231): > 30 µM
- IC50 (MiaPaCa-2): > 30 µM
- IC50 (Panc-10.05): > 30 µM
- IC50 (THP1): > 30 µM
- IC50 (HT-29): > 30 µM

SMILES: N#Cc1cnc(Nc2cc(NCC3CNCCO3)c(C(=O)NC3CC3)nn2)cn1 (stereo not drawn) [1.12, 6-(5-cyanopyrazin-2-ylamino)-N-cyclopropyl-4-(morpholin-2-ylmethylamino)pyridazine-3-carboxamide]
- inhibition at 0.1 µM (CHK-1 kinase): 63%
- inhibition at 1 µM (CHK-1 kinase): 96%
- inhibition at 5 µM (CHK-1 kinase): 98%
- IC50 (AsPC-1): 12.9 µM
- IC50 (MiaPaCa-2): 23.2 µM
- IC50 (THP1): 11.7 µM
- IC50 (HT-29): > 30 µM

SMILES: CNC(=O)c1nnc(Nc2cnc(C#N)cn2)cc1NCC1CNCCO1 (stereo not drawn) [1.11, 6-(5-cyanopyrazin-2-ylamino)-N-methyl-4-(morpholin-2-ylmethylamino)pyridazine-3-carboxamide]
- inhibition at 0.1 µM (CHK-1 kinase): 91%
- inhibition at 1 µM (CHK-1 kinase): 100%
- inhibition at 5 µM (CHK-1 kinase): 100%
- IC50 (A549): 11.4 µM
- IC50 (AsPC-1): 6.41 µM
- IC50 (HCT116): 17.2 µM
- IC50 (MDA_MB-231): 13 µM
- IC50 (MiaPaCa-2): 13.4 µM
- IC50 (THP1): 4.24 µM
- IC50 (HT-29): 14.9 µM
- IC50 (MV-4-11): 5.4 µM

SMILES: N#Cc1cnc(Nc2cc(NCC3CCNCC3)c(-c3ccccc3)nn2)cn1 [1.1, 5-((6-phenyl-5-((piperidin-4-ylmethyl)amino)pyridazin-3-yl)amino)pyrazine-2-carbonitrile]
- inhibition at 1 µM (CHK-1 kinase): 15%
- inhibition at 5 µM (CHK-1 kinase): 32%
- IC50 (HCT116): > 30 µM

SMILES: CNC(=O)c1nnc(Nc2cnc(C#N)cn2)cc1NC[C@H]1CNCCO1 (stereo in doubt) [1.35, 6-(5-cyanopyrazin-2-ylamino)-N-methyl-4-(morpholin-2-ylmethylamino)pyridazine-3-carboxamide]
- inhibition at 0.1 µM (CHK-1 kinase): 86%
- inhibition at 1 µM (CHK-1 kinase): 100%
- inhibition at 5 µM (CHK-1 kinase): 100%
- IC50 (A549): > 30 µM
- IC50 (AsPC-1): 11.6 µM
- IC50 (HCT116): 17.2 µM
- IC50 (MDA_MB-231): 15.5 µM
- IC50 (MiaPaCa-2): 10.2 µM
- IC50 (THP1): 6.23 µM
- IC50 (HT-29): 14.5 µM
- IC50 (MV-4-11): 5.38 µM

SMILES: CNC(=O)c1nnc(Nc2cnc(C#N)cn2)cc1NCC1CCN(C)CC1 [1.19, 6-(5-cyanopyrazin-2-ylamino)-N-methyl-4-((1-methylpiperidin-4-yl)methylamino)pyridazine-3-carboxamide]
- inhibition at 0.1 µM (CHK-1 kinase): 49%
- inhibition at 1 µM (CHK-1 kinase): 90%
- inhibition at 5 µM (CHK-1 kinase): 99%
- IC50 (AsPC-1): 8.45 µM
- IC50 (MiaPaCa-2): 26.2 µM
- IC50 (THP1): 13.1 µM
